Experimental data as given in PubChem BioAssay (NCI).
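All cell lines were grown in 96-well plates and treated with compound for 48 hours. GI50 is the concentration that inhibits growth by half. At the TGI there is no net growth.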

Experiments:
Assay in all cases: DTP human tumour cell line panel, 48 h
SNB-19 CNS = system: SNB-19 CNS
OVCAR-3 ovarian = system: OVCAR-3 ovarian
OVCAR-5 ovarian = system: OVCAR-5 ovarian
HOP-92 NSCLC = system: HOP-92 NSCLC
SNB-75 CNS = system: SNB-75 CNS
UO-31 renal = system: UO-31 renal
IGROV1 ovarian = system: IGROV1 ovarian
U251 CNS = system: U251 CNS
SF-268 CNS = system: SF-268 CNS
NCI/ADR-RES ovarian = system: NCI/ADR-RES ovarian
OVCAR-8 ovarian = system: OVCAR-8 ovarian
LOX IMVI melanoma = system: LOX IMVI melanoma
T-47D breast = system: T-47D breast
NCI-H23 lung = system: NCI-H23 lung
HOP-62 NSCLC = system: HOP-62 NSCLC
SK-OV-3 ovarian = system: SK-OV-3 ovarian
SN12C renal = system: SN12C renal
PC-3 prostate = system: PC-3 prostate
COLO 205 colon = system: COLO 205 colon
BT-549 breast = system: BT-549 breast
HS 578T breast = system: HS 578T breast
RXF 393 renal = system: RXF 393 renal
HL-60(TB) leukemia = system: HL-60(TB) leukemia
OVCAR-4 ovarian = system: OVCAR-4 ovarian
HT29 colon = system: HT29 colon
KM12 colon = system: KM12 colon
DU-145 prostate = system: DU-145 prostate
K-562 leukemia = system: K-562 leukemia
ACHN renal = system: ACHN renal
SW-620 colon = system: SW-620 colon
A498 renal = system: A498 renal
SK-MEL-28 melanoma = system: SK-MEL-28 melanoma
786-0 renal = system: 786-0 renal
CCRF-CEM leukemia = system: CCRF-CEM leukemia
MDA-MB-231 breast = system: MDA-MB-231 breast
NCI-H460 lung = system: NCI-H460 lung
HCT-15 colon = system: HCT-15 colon
A549 NSCLC = system: A549 NSCLC
NCI-H226 lung = system: NCI-H226 lung
SK-MEL-2 melanoma = system: SK-MEL-2 melanoma
MALME-3M melanoma = system: MALME-3M melanoma
TK-10 renal = system: TK-10 renal
HCT-116 colon = system: HCT-116 colon
M14 melanoma = system: M14 melanoma
MCF7 breast = system: MCF7 breast
NCI-H522 lung = system: NCI-H522 lung
EKVX NSCLC = system: EKVX NSCLC
HCC-2998 colon = system: HCC-2998 colon
RPMI-8226 leukemia = system: RPMI-8226 leukemia
SK-MEL-5 melanoma = system: SK-MEL-5 melanoma
UACC-62 melanoma = system: UACC-62 melanoma
SF-539 CNS = system: SF-539 CNS
UACC-257 melanoma = system: UACC-257 melanoma
MDA-MB-435 = system: MDA-MB-435
SF-295 CNS = system: SF-295 CNS

SMILES: Cn1c2c(c3ccc(-c4ccn[nH]4)cc3c1=O)C(=O)c1ccccc1-2
- GI50 (SNB-19 CNS): 2.71 µM
- TGI (SNB-19 CNS): 17.3 µM
- GI50 (OVCAR-3 ovarian): 5.97 µM
- TGI (OVCAR-3 ovarian): 76.3 µM
- GI50 (OVCAR-5 ovarian): 5.08 µM
- TGI (OVCAR-5 ovarian): > 100 µM
- GI50 (HOP-92 NSCLC): 2.84 µM
- TGI (HOP-92 NSCLC): 9.93 µM
- GI50 (SNB-75 CNS): 6.18 µM
- TGI (SNB-75 CNS): > 100 µM
- GI50 (UO-31 renal): 1.5 µM
- TGI (UO-31 renal): > 100 µM
- GI50 (IGROV1 ovarian): 2.18 µM
- TGI (IGROV1 ovarian): > 100 µM
- GI50 (U251 CNS): 1.66 µM
- TGI (U251 CNS): 10.5 µM
- GI50 (SF-268 CNS): 3.21 µM
- TGI (SF-268 CNS): > 100 µM
- GI50 (NCI/ADR-RES ovarian): 3.78 µM
- TGI (NCI/ADR-RES ovarian): > 100 µM
- GI50 (OVCAR-8 ovarian): 1.78 µM
- TGI (OVCAR-8 ovarian): 34.6 µM
- GI50 (LOX IMVI melanoma): 1.06 µM
- TGI (LOX IMVI melanoma): 4.78 µM
- GI50 (T-47D breast): 2.86 µM
- TGI (T-47D breast): > 100 µM
- GI50 (NCI-H23 lung): 2.64 µM
- TGI (NCI-H23 lung): > 100 µM
- GI50 (HOP-62 NSCLC): 1.92 µM
- TGI (HOP-62 NSCLC): 9.89 µM
- GI50 (SK-OV-3 ovarian): 5.21 µM
- TGI (SK-OV-3 ovarian): > 100 µM
- GI50 (SN12C renal): 2.1 µM
- TGI (SN12C renal): 8.86 µM
- GI50 (PC-3 prostate): 4.28 µM
- TGI (PC-3 prostate): > 100 µM
- GI50 (COLO 205 colon): 5.51 µM
- TGI (COLO 205 colon): > 100 µM
- GI50 (BT-549 breast): 2.29 µM
- TGI (BT-549 breast): 8.78 µM
- GI50 (HS 578T breast): 6.84 µM
- TGI (HS 578T breast): > 100 µM
- GI50 (RXF 393 renal): 3.61 µM
- TGI (RXF 393 renal): > 100 µM
- GI50 (HL-60(TB) leukemia): 0.813 µM
- TGI (HL-60(TB) leukemia): 5.53 µM
- GI50 (OVCAR-4 ovarian): 7.65 µM
- TGI (OVCAR-4 ovarian): > 100 µM
- GI50 (HT29 colon): 1.52 µM
- TGI (HT29 colon): 4.85 µM
- GI50 (KM12 colon): 2.34 µM
- TGI (KM12 colon): > 100 µM
- GI50 (DU-145 prostate): 1.71 µM
- TGI (DU-145 prostate): > 100 µM
- GI50 (K-562 leukemia): 2.17 µM
- TGI (K-562 leukemia): > 100 µM
- GI50 (ACHN renal): 1.34 µM
- TGI (ACHN renal): 5.78 µM
- GI50 (SW-620 colon): 2.15 µM
- TGI (SW-620 colon): > 100 µM
- GI50 (A498 renal): 6.44 µM
- TGI (A498 renal): > 100 µM
- GI50 (SK-MEL-28 melanoma): 42.5 µM
- TGI (SK-MEL-28 melanoma): > 100 µM
- GI50 (786-0 renal): 1.49 µM
- TGI (786-0 renal): 4.46 µM
- GI50 (CCRF-CEM leukemia): 0.832 µM
- TGI (CCRF-CEM leukemia): > 100 µM
- GI50 (MDA-MB-231 breast): 4.46 µM
- TGI (MDA-MB-231 breast): 64.7 µM
- GI50 (NCI-H460 lung): 0.494 µM
- TGI (NCI-H460 lung): 3.37 µM
- GI50 (HCT-15 colon): 1.51 µM
- TGI (HCT-15 colon): > 100 µM
- GI50 (A549 NSCLC): 1.03 µM
- TGI (A549 NSCLC): 3.04 µM
- GI50 (NCI-H226 lung): 1.83 µM
- TGI (NCI-H226 lung): 5.39 µM
- GI50 (SK-MEL-2 melanoma): > 100 µM
- TGI (SK-MEL-2 melanoma): > 100 µM
- GI50 (MALME-3M melanoma): 4.21 µM
- TGI (MALME-3M melanoma): > 100 µM
- GI50 (TK-10 renal): 4.02 µM
- TGI (TK-10 renal): 68.6 µM
- GI50 (HCT-116 colon): 1.52 µM
- TGI (HCT-116 colon): 19 µM
- GI50 (M14 melanoma): 3.6 µM
- TGI (M14 melanoma): > 100 µM
- GI50 (MCF7 breast): 0.408 µM
- TGI (MCF7 breast): > 100 µM
- GI50 (NCI-H522 lung): 2.22 µM
- TGI (NCI-H522 lung): 23.8 µM
- GI50 (EKVX NSCLC): 2.95 µM
- TGI (EKVX NSCLC): > 100 µM
- GI50 (HCC-2998 colon): 11.6 µM
- TGI (HCC-2998 colon): > 100 µM
- GI50 (RPMI-8226 leukemia): 1.77 µM
- TGI (RPMI-8226 leukemia): 4.79 µM
- GI50 (SK-MEL-5 melanoma): 1.76 µM
- TGI (SK-MEL-5 melanoma): 5.68 µM
- GI50 (UACC-62 melanoma): 3.1 µM
- TGI (UACC-62 melanoma): > 100 µM
- GI50 (SF-539 CNS): 2.28 µM
- TGI (SF-539 CNS): 11.4 µM
- GI50 (UACC-257 melanoma): 7.79 µM
- TGI (UACC-257 melanoma): > 100 µM
- GI50 (MDA-MB-435): 7.51 µM
- TGI (MDA-MB-435): > 100 µM
- GI50 (SF-295 CNS): 3.81 µM
- TGI (SF-295 CNS): > 100 µM
